From publication PMC6941952, “A homogeneous bioluminescent immunoassay to probe cellular signaling pathway regulation” (Communications Biology, 2020)

Tested on: phospho-IκBα (Ser32)
Assay: NanoBiT cell-based immunoassay, phosphorylated IκBα in MCF-7 cells
Set-up: species or system human
Conditions: for Raw data / Subtract reagent background: TNF
Method: Prior to NanoBiT Cell-Based Immunoassay, 50,000 cells were seeded in 160 µl of complete growth media per well of a 96-well plate and incubated overnight. The cells were checked under microscope and it was determined that 50,000 cells per well in 96-well plate is under 90% confluency for all cells tested. If necessary, the cell culture media were replaced with serum-free media after the cells were stably adherent on the plate and incubated overnight. To treat cells with activators or inhibitors, medium was changed to 30 µl of medium containing inhibitors. If activation of a specific pathway is needed, the cells were stimulated with 10 µl of medium containing activators. To lyse the cells, 10 µl of lysis buffer containing 0.1% digitonin diluted in 1X immunoassay buffer with protease and phosphatase inhibitors was added and the plates were mixed vigorously for 20 min. Then, 50 µl of an antibody mix containing two primary antibodies against the target protein and NanoBiT detecting antibodies (0.3 µl each per well), diluted in 1X immunoassay buffer was added to the lysates. The plates were incubated at 23 °C for 90 min, followed by the addition of 25 µl of Nano-Glo® reagent consisting of Nano-Glo® Luciferase Assay Substrate mixed with 1X immunoassay buffer. Luminescence was measured using a plate-reading luminometer.
In all, 50,000 MCF-7 cells were seeded in 160 µl complete growth medium per well of a 96-well plate and incubated overnight. Half of the cells were treated with 50 ng per ml TNFα and half with vehicle. Cells were lysed as described above and a mixture of NanoBiT secondary antibodies with primary antibodies at the matrix concentrations described in Fig. 2a were added. After 90 min incubation, the Nano-Glo® reagent was added to the reactions as described above and luminescence was measured using a plate-reading luminometer.
Single dose or dose response inhibitor treatments were performed prior to activation of the pathways as follows. For IκBα, the cells were treated in 30 µl medium with IKK16 or MG132 for 60 min before the addition of 10 µl of DMEM containing appropriate concentration of TNFα. To measure phosphorylation of AKT or STAT3, the corresponding NanoBiT immunoassays were developed with MCF-7 or A431 cells, respectively, according the same scheme used to develop the IκBα assay using the primary antibodies for AKT and STAT3 described in the reagents section. For the AKT assay, MCF-7 cells were incubated overnight in phenol-red free DMEM medium (Gibco #21063-029) without serum. Treatment with LY294002 was performed in 30 µl medium and cells were incubated for 60 min before the addition of 1 µM Insulin. To measure STAT3 phosphorylation, A431 cells were incubated overnight in DMEM medium without serum. […] After addition of the stimulators, the cells were incubated for additional times as follows. IκBα phosphorylation and degradation analyses required both time courses and single time points as described in figures. […] The NanoBiT immunoassay protocol was followed as described above.
All 96-well assay plates were read using a GloMax® 96 Microplate Luminometer from Promega. The instrument was set to 0.5 s integration time. In order to obtain net change of signal, the reagent background values (signal from the well containing all reagent except primary antibodies) were subtracted from the sample values. To plot and analyze the data, Microsoft Excel and GraphPad Prism® Software were used. IC50 values were determined by using a nonlinear regression fit to a sigmoidal dose response (variable slope).

[1] = plate #1, IkB Ab #1 75 ng/ml, P-IkB Ab #1 150 ng/ml
[2] = plate #1, IkB Ab #1 75 ng/ml, P-IkB Ab #1 300 ng/ml
[3] = plate #1, IkB Ab #1 75 ng/ml, P-IkB Ab #1 600 ng/ml
[4] = plate #1, IkB Ab #1 75 ng/ml, P-IkB Ab #1 1200 ng/ml
[5] = plate #1, IkB Ab #1 150 ng/ml, P-IkB Ab #1 75 ng/ml
[6] = plate #1, IkB Ab #1 150 ng/ml, P-IkB Ab #1 150 ng/ml
[7] = plate #1, IkB Ab #1 150 ng/ml, P-IkB Ab #1 300 ng/ml
[8] = plate #1, IkB Ab #1 150 ng/ml, P-IkB Ab #1 600 ng/ml
[9] = plate #1, IkB Ab #1 150 ng/ml, P-IkB Ab #1 1200 ng/ml
[10] = plate #1, IkB Ab #1 300 ng/ml, P-IkB Ab #1 75 ng/ml
[11] = plate #1, IkB Ab #1 300 ng/ml, P-IkB Ab #1 150 ng/ml
[12] = plate #1, IkB Ab #1 300 ng/ml, P-IkB Ab #1 300 ng/ml
[13] = plate #1, IkB Ab #1 300 ng/ml, P-IkB Ab #1 600 ng/ml
[14] = plate #1, IkB Ab #1 300 ng/ml, P-IkB Ab #1 1200 ng/ml
[15] = plate #1, IkB Ab #1 600 ng/ml, P-IkB Ab #1 75 ng/ml
[16] = plate #1, IkB Ab #1 600 ng/ml, P-IkB Ab #1 150 ng/ml
[17] = plate #1, IkB Ab #1 600 ng/ml, P-IkB Ab #1 300 ng/ml
[18] = plate #1, IkB Ab #1 600 ng/ml, P-IkB Ab #1 600 ng/ml
[19] = plate #1, IkB Ab #1 600 ng/ml, P-IkB Ab #1 1200 ng/ml
[20] = plate #1, IkB Ab #1 1200 ng/ml, P-IkB Ab #1 75 ng/ml
[21] = plate #1, IkB Ab #1 1200 ng/ml, P-IkB Ab #1 150 ng/ml
[22] = plate #1, IkB Ab #1 1200 ng/ml, P-IkB Ab #1 300 ng/ml
[23] = plate #1, IkB Ab #1 1200 ng/ml, P-IkB Ab #1 600 ng/ml
[24] = plate #1, IkB Ab #1 1200 ng/ml, P-IkB Ab #1 1200 ng/ml
[25] = plate #2, IkB Ab #2 75 ng/ml, P-IkB Ab #1 75 ng/ml

With TNFα the Raw data [1] was 38800, the Subtract reagent background [1] was 19890 and the Raw data [2] was 36190. For the same substance, the Subtract reagent background [2] was 17280, the Raw data [3] was 29500 and the Subtract reagent background [3] was 10590. The Raw data [4] was 23430, the Subtract reagent background [4] was 4520 and the Raw data [5] was 31770. It also gave a Subtract reagent background [5] of 12860, a Raw data [6] of 37260 and a Subtract reagent background [6] of 18350. For the same substance, the Raw data [7] was 34880, the Subtract reagent background [7] was 15970 and the Raw data [8] was 27610. It also gave a Subtract reagent background [8] of 8700, a Raw data [9] of 22810 and a Subtract reagent background [9] of 3900. It also gave a Raw data [10] of 28900, a Subtract reagent background [10] of 9990 and a Raw data [11] of 32520. It also gave a Subtract reagent background [11] of 13610, a Raw data [12] of 32030 and a Subtract reagent background [12] of 13120. It also gave a Raw data [13] of 24980, a Subtract reagent background [13] of 6070 and a Raw data [14] of 21690. It also gave a Subtract reagent background [14] of 2780, a Raw data [15] of 24730 and a Subtract reagent background [15] of 5820. For the same substance, the Raw data [16] was 27710, the Subtract reagent background [16] was 8800 and the Raw data [17] was 26820. For the same substance, the Subtract reagent background [17] was 7910, the Raw data [18] was 24690 and the Subtract reagent background [18] was 5780. For the same substance, the Raw data [19] was 22170, the Subtract reagent background [19] was 3260 and the Raw data [20] was 22890. The Subtract reagent background [20] was 3980, the Raw data [21] was 24970 and the Subtract reagent background [21] was 6060. It also gave a Raw data [22] of 24110, a Subtract reagent background [22] of 5200 and a Raw data [23] of 24380. The Subtract reagent background [23] was 5470, the Raw data [24] was 22870 and the Subtract reagent background [24] was 3960. For the same substance, the “Fold change (TNF-treated /Non-treated)” value (plate #1, IkB Ab #1 (Mouse) 75 ng/ml, P-IkB Ab #1 (Rabbit) 150 ng/ml) was 8.219, the “Fold change (TNF-treated /Non-treated)” value (plate #1, IkB Ab #1 (Mouse) 75 ng/ml, P-IkB Ab #1 (Rabbit) 150 ng/ml, listed as TNF) was 8.2 and the “Fold change (TNF-treated /Non-treated)” value (plate #1, IkB Ab #1 (Mouse) 75 ng/ml, P-IkB Ab #1 (Rabbit) 300 ng/ml) was 4.364. For the same substance, the “Fold change (TNF-treated /Non-treated)” value (plate #1, IkB Ab #1 (Mouse) 75 ng/ml, P-IkB Ab #1 (Rabbit) 300 ng/ml, listed as TNF) was 4.4, the “Fold change (TNF-treated /Non-treated)” value (plate #1, IkB Ab #1 (Mouse) 75 ng/ml, P-IkB Ab #1 (Rabbit) 600 ng/ml) was 2.688 and the “Fold change (TNF-treated /Non-treated)” value (plate #1, IkB Ab #1 (Mouse) 75 ng/ml, P-IkB Ab #1 (Rabbit) 600 ng/ml, listed as TNF) was 2.7. For the same substance, the “Fold change (TNF-treated /Non-treated)” value (plate #1, IkB Ab #1 (Mouse) 75 ng/ml, P-IkB Ab #1 (Rabbit) 1200 ng/ml) was 1.8374, the “Fold change (TNF-treated /Non-treated)” value (plate #1, IkB Ab #1 (Mouse) 75 ng/ml, P-IkB Ab #1 (Rabbit) 1200 ng/ml, listed as TNF) was 1.8 and the “Fold change (TNF-treated /Non-treated)” value (plate #1, IkB Ab #1 (Mouse) 150 ng/ml, P-IkB Ab #1 (Rabbit) 150 ng/ml) was 9.557. The “Fold change (TNF-treated /Non-treated)” value (plate #1, IkB Ab #1 (Mouse) 150 ng/ml, P-IkB Ab #1 (Rabbit) 150 ng/ml, listed as TNF) was 9.6, the “Fold change (TNF-treated /Non-treated)” value (plate #1, IkB Ab #1 (Mouse) 150 ng/ml, P-IkB Ab #1 (Rabbit) 300 ng/ml) was 4.656 and the “Fold change (TNF-treated /Non-treated)” value (plate #1, IkB Ab #1 (Mouse) 150 ng/ml, P-IkB Ab #1 (Rabbit) 300 ng/ml, listed as TNF) was 4.7. The “Fold change (TNF-treated /Non-treated)” value (plate #1, IkB Ab #1 (Mouse) 150 ng/ml, P-IkB Ab #1 (Rabbit) 600 ng/ml) was 2.797, the “Fold change (TNF-treated /Non-treated)” value (plate #1, IkB Ab #1 (Mouse) 150 ng/ml, P-IkB Ab #1 (Rabbit) 600 ng/ml, listed as TNF) was 2.8 and the “Fold change (TNF-treated /Non-treated)” value (plate #1, IkB Ab #1 (Mouse) 150 ng/ml, P-IkB Ab #1 (Rabbit) 1200 ng/ml) was 0.8904. For the same substance, the “Fold change (TNF-treated /Non-treated)” value (plate #1, IkB Ab #1 (Mouse) 150 ng/ml, P-IkB Ab #1 (Rabbit) 1200 ng/ml, listed as TNF) was 0.9, the “Fold change (TNF-treated /Non-treated)” value (plate #1, IkB Ab #1 (Mouse) 300 ng/ml, P-IkB Ab #1 (Rabbit) 150 ng/ml, listed as TNF) was 4.1 and the “Fold change (TNF-treated /Non-treated)” value (plate #1, IkB Ab #1 (Mouse) 300 ng/ml, P-IkB Ab #1 (Rabbit) 300 ng/ml, listed as TNF) was 3.3. The “Fold change (TNF-treated /Non-treated)” value (plate #1, IkB Ab #1 (Mouse) 300 ng/ml, P-IkB Ab #1 (Rabbit) 600 ng/ml, listed as TNF) was 1.6, the “Fold change (TNF-treated /Non-treated)” value (plate #1, IkB Ab #1 (Mouse) 300 ng/ml, P-IkB Ab #1 (Rabbit) 1200 ng/ml, listed as TNF) was 1.0 and the “Fold change (TNF-treated /Non-treated)” value (plate #1, IkB Ab #1 (Mouse) 600 ng/ml, P-IkB Ab #1 (Rabbit) 75 ng/ml, listed as TNF) was 4.9. For the same substance, the “Fold change (TNF-treated /Non-treated)” value (plate #1, IkB Ab #1 (Mouse) 600 ng/ml, P-IkB Ab #1 (Rabbit) 150 ng/ml, listed as TNF) was 5.1, the “Fold change (TNF-treated /Non-treated)” value (plate #1, IkB Ab #1 (Mouse) 600 ng/ml, P-IkB Ab #1 (Rabbit) 300 ng/ml, listed as TNF) was 3.0 and the “Fold change (TNF-treated /Non-treated)” value (plate #1, IkB Ab #1 (Mouse) 600 ng/ml, P-IkB Ab #1 (Rabbit) 600 ng/ml, listed as TNF) was 2.3. For the same substance, the “Fold change (TNF-treated /Non-treated)” value (plate #1, IkB Ab #1 (Mouse) 600 ng/ml, P-IkB Ab #1 (Rabbit) 1200 ng/ml, listed as TNF) was 1.1, the “Fold change (TNF-treated /Non-treated)” value (plate #1, IkB Ab #1 (Mouse) 1200 ng/ml, P-IkB Ab #1 (Rabbit) 75 ng/ml, listed as TNF) was 2.5 and the “Fold change (TNF-treated /Non-treated)” value (plate #1, IkB Ab #1 (Mouse) 1200 ng/ml, P-IkB Ab #1 (Rabbit) 150 ng/ml, listed as TNF) was 3.0. The “Fold change (TNF-treated /Non-treated)” value (plate #1, IkB Ab #1 (Mouse) 1200 ng/ml, P-IkB Ab #1 (Rabbit) 300 ng/ml, listed as TNF) was 1.9, the “Fold change (TNF-treated /Non-treated)” value (plate #1, IkB Ab #1 (Mouse) 1200 ng/ml, P-IkB Ab #1 (Rabbit) 600 ng/ml, listed as TNF) was 2.0 and the “Fold change (TNF-treated /Non-treated)” value (plate #1, IkB Ab #1 (Mouse) 1200 ng/ml, P-IkB Ab #1 (Rabbit) 1200 ng/ml, listed as TNF) was 1.8. It also gave a Raw data [25] of 20520, a Subtract reagent background [25] of 2000 and a Raw data (plate #2, IkB Ab #2 75 ng/ml, P-IkB Ab #1 150 ng/ml) of 20690.
